Measured values as given in the kinase profiling compilation of Christmann-Franck et al. (2016).

These compounds were tested against MELK (human) (UniProt Q14680) (assay: radiometric filter-binding kinase assay, Kinase HotSpot). Conditions: compound 0.5 µM; ATP 10 µM.
Sequence of MELK (human) (Q14680 whole entry, looked up): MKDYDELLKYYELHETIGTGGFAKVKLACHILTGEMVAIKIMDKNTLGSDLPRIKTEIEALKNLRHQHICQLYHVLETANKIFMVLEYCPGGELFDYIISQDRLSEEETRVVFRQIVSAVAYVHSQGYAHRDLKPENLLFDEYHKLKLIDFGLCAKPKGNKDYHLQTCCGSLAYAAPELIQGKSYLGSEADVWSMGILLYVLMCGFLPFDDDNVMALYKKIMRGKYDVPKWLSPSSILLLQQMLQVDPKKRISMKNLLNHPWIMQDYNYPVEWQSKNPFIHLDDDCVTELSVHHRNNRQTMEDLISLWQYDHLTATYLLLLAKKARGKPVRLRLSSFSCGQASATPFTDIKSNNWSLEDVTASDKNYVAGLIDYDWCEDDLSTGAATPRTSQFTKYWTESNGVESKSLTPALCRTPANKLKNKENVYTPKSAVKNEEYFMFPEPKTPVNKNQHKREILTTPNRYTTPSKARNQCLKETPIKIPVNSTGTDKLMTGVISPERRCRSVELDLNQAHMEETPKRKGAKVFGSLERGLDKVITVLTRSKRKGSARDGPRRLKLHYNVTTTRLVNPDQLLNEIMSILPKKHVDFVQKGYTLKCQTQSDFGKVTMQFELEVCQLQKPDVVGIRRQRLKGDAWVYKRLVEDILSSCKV

First: O=C(Nc1ccc(Cl)cc1)c1ccccc1NCc1ccncc1
Second: COc1cc2nccc(Oc3ccc(NC(=S)NC(=O)c4ccccc4C)cc3)c2cc1OC
The residual activity of the first is lower: 92.3% for the first, 98.5% for the second.

Going from `CC(C)n1cnc2c(Nc3cccc(Cl)c3)nc(NCCO)nc21` to `O=c1cc(-c2cccc3c2Sc2ccccc2S3)oc(N2CCOCC2)c1`, the residual activity rises from 59.7% to 99.9%.

The compounds below were run against MERTK (human) (UniProt Q12866) in the same assay as above. Conditions: compound 0.5 µM; ATP 10 µM.
Sequence of MERTK (human) (Q12866 whole entry, looked up): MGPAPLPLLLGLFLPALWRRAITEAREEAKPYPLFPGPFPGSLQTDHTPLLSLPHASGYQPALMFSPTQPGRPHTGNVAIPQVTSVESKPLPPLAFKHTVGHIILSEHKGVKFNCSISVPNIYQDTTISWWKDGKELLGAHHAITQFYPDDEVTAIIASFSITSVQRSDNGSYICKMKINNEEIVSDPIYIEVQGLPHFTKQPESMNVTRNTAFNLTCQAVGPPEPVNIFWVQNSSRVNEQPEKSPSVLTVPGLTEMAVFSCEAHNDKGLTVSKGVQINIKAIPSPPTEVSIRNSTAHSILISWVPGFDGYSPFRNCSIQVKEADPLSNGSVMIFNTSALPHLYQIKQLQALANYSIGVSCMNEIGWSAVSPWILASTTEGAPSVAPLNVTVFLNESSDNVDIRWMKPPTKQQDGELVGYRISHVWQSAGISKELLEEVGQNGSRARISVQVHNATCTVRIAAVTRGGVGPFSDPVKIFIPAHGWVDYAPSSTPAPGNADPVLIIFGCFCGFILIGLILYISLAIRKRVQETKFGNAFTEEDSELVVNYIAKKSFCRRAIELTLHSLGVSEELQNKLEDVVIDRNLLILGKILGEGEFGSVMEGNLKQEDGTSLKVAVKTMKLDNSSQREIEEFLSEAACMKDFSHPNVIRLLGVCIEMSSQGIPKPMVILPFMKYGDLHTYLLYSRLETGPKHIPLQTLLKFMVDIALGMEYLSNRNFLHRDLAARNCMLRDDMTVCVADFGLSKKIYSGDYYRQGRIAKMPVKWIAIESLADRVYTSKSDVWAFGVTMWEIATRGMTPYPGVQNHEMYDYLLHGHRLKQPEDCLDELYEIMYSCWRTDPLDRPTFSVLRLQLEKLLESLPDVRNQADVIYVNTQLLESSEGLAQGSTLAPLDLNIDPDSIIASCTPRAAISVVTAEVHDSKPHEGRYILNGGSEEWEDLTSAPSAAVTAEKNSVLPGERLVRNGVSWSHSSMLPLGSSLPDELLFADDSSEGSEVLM

Going from `O=C(Nc1ccc(Cl)cc1)c1ccccc1NCc1ccncc1` to `COc1cc2nccc(Oc3ccc(NC(=S)NC(=O)c4ccccc4C)cc3)c2cc1OC`, the residual activity falls from 79% to 32.3%.

Compared with `CC(C)n1cnc2c(Nc3cccc(Cl)c3)nc(NCCO)nc21`, `O=c1cc(-c2cccc3c2Sc2ccccc2S3)oc(N2CCOCC2)c1` is higher in residual activity: 89.7% for the first, 97% for the second.

The compounds below were run against NEK1 (human) (UniProt Q96PY6) in the same assay as above. Conditions: compound 0.5 µM; ATP 10 µM.

First: O=C(Nc1ccc(Cl)cc1)c1ccccc1NCc1ccncc1
Second: COc1cc2nccc(Oc3ccc(NC(=S)NC(=O)c4ccccc4C)cc3)c2cc1OC
The residual activity of the first is lower: 96% for the first, 96.7% for the second.

Going from `CC(C)n1cnc2c(Nc3cccc(Cl)c3)nc(NCCO)nc21` to `O=c1cc(-c2cccc3c2Sc2ccccc2S3)oc(N2CCOCC2)c1`, the residual activity rises from 90.4% to 100%.

What follows are compounds tested against NEK9 (human) (UniProt Q8TD19) in the same assay as above. Conditions: compound 0.5 µM; ATP 10 µM.

Going from `O=C(Nc1ccc(Cl)cc1)c1ccccc1NCc1ccncc1` to `COc1cc2nccc(Oc3ccc(NC(=S)NC(=O)c4ccccc4C)cc3)c2cc1OC`, the residual activity rises from 91.2% to 103%.

First: CC(C)n1cnc2c(Nc3cccc(Cl)c3)nc(NCCO)nc21
Second: O=c1cc(-c2cccc3c2Sc2ccccc2S3)oc(N2CCOCC2)c1
The residual activity of the first is lower: 81.1% for the first, 110% for the second.

The compounds below were run against NTRK1 (human) (UniProt P04629) in the same assay as above. Conditions: compound 0.5 µM; ATP 10 µM.

First: O=C(Nc1ccc(Cl)cc1)c1ccccc1NCc1ccncc1
Second: COc1cc2nccc(Oc3ccc(NC(=S)NC(=O)c4ccccc4C)cc3)c2cc1OC
The residual activity of the first is higher: 95.5% for the first, 82.5% for the second.

First: CC(C)n1cnc2c(Nc3cccc(Cl)c3)nc(NCCO)nc21
Second: O=c1cc(-c2cccc3c2Sc2ccccc2S3)oc(N2CCOCC2)c1
The residual activity of the first is lower: 98.2% for the first, 99.4% for the second.

The compounds below were run against PAK1 (human) (UniProt Q13153) in the same assay as above. Conditions: compound 0.5 µM; ATP 10 µM.

Compared with `O=C(Nc1ccc(Cl)cc1)c1ccccc1NCc1ccncc1`, `COc1cc2nccc(Oc3ccc(NC(=S)NC(=O)c4ccccc4C)cc3)c2cc1OC` is higher in residual activity: 94.9% for the first, 101% for the second.

Compared with `CC(C)n1cnc2c(Nc3cccc(Cl)c3)nc(NCCO)nc21`, `O=c1cc(-c2cccc3c2Sc2ccccc2S3)oc(N2CCOCC2)c1` is lower in residual activity: 97.1% for the first, 92.3% for the second.

The compounds below were run against PHKG2 (human) (UniProt P15735) in the same assay as above. Conditions: compound 0.5 µM; ATP 10 µM.
Sequence of PHKG2 (human) (P15735 whole entry, looked up): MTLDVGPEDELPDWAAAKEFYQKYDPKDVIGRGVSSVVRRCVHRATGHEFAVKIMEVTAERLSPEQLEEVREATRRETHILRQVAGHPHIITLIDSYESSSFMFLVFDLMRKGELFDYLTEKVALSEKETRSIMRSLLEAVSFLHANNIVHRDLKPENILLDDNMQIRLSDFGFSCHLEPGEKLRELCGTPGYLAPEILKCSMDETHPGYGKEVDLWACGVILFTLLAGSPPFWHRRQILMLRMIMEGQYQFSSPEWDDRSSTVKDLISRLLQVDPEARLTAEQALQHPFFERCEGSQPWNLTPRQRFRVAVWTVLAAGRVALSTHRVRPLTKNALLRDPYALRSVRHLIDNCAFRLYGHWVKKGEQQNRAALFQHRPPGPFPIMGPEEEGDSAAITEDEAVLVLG

Going from `O=C(Nc1ccc(Cl)cc1)c1ccccc1NCc1ccncc1` to `COc1cc2nccc(Oc3ccc(NC(=S)NC(=O)c4ccccc4C)cc3)c2cc1OC`, the residual activity rises from 97.1% to 110%.

Compared with `CC(C)n1cnc2c(Nc3cccc(Cl)c3)nc(NCCO)nc21`, `O=c1cc(-c2cccc3c2Sc2ccccc2S3)oc(N2CCOCC2)c1` is higher in residual activity: 93.2% for the first, 98.6% for the second.

These compounds were tested against PKN2 (human) (UniProt Q16513) in the same assay as above. Conditions: compound 0.5 µM; ATP 10 µM.

First: O=C(Nc1ccc(Cl)cc1)c1ccccc1NCc1ccncc1
Second: COc1cc2nccc(Oc3ccc(NC(=S)NC(=O)c4ccccc4C)cc3)c2cc1OC
The residual activity of the first is lower: 93.2% for the first, 109% for the second.

Going from `CC(C)n1cnc2c(Nc3cccc(Cl)c3)nc(NCCO)nc21` to `O=c1cc(-c2cccc3c2Sc2ccccc2S3)oc(N2CCOCC2)c1`, the residual activity falls from 90.8% to 72.9%.

Each compound was assayed against PRKCZ (human) (UniProt Q05513) in the same assay as above. Conditions: compound 0.5 µM; ATP 10 µM.

Going from `O=C(Nc1ccc(Cl)cc1)c1ccccc1NCc1ccncc1` to `COc1cc2nccc(Oc3ccc(NC(=S)NC(=O)c4ccccc4C)cc3)c2cc1OC`, the residual activity falls from 100% to 96.9%.

First: CC(C)n1cnc2c(Nc3cccc(Cl)c3)nc(NCCO)nc21
Second: O=c1cc(-c2cccc3c2Sc2ccccc2S3)oc(N2CCOCC2)c1
The residual activity of the first is lower: 97.8% for the first, 102% for the second.

Each compound was assayed against PTK2B (human) (UniProt Q14289) in the same assay as above. Conditions: compound 0.5 µM; ATP 10 µM.

Compared with `O=C(Nc1ccc(Cl)cc1)c1ccccc1NCc1ccncc1`, `COc1cc2nccc(Oc3ccc(NC(=S)NC(=O)c4ccccc4C)cc3)c2cc1OC` is higher in residual activity: 89.3% for the first, 93.4% for the second.

Compared with `CC(C)n1cnc2c(Nc3cccc(Cl)c3)nc(NCCO)nc21`, `O=c1cc(-c2cccc3c2Sc2ccccc2S3)oc(N2CCOCC2)c1` is higher in residual activity: 85% for the first, 106% for the second.

The compounds below were run against PTK6 (human) (UniProt Q13882) in the same assay as above. Conditions: compound 0.5 µM; ATP 10 µM.

Going from `O=C(Nc1ccc(Cl)cc1)c1ccccc1NCc1ccncc1` to `COc1cc2nccc(Oc3ccc(NC(=S)NC(=O)c4ccccc4C)cc3)c2cc1OC`, the residual activity falls from 63.6% to 33.9%.

Compared with `CC(C)n1cnc2c(Nc3cccc(Cl)c3)nc(NCCO)nc21`, `O=c1cc(-c2cccc3c2Sc2ccccc2S3)oc(N2CCOCC2)c1` is higher in residual activity: 90.2% for the first, 90.6% for the second.

Each compound was assayed against RIPK2 (human) (UniProt O43353) in the same assay as above. Conditions: compound 0.5 µM; ATP 10 µM.

Compared with `O=C(Nc1ccc(Cl)cc1)c1ccccc1NCc1ccncc1`, `COc1cc2nccc(Oc3ccc(NC(=S)NC(=O)c4ccccc4C)cc3)c2cc1OC` is higher in residual activity: 82.9% for the first, 89.2% for the second.

First: CC(C)n1cnc2c(Nc3cccc(Cl)c3)nc(NCCO)nc21
Second: O=c1cc(-c2cccc3c2Sc2ccccc2S3)oc(N2CCOCC2)c1
The residual activity of the first is lower: 84.3% for the first, 114% for the second.

What follows are compounds tested against ROCK1 (human) (UniProt Q13464) in the same assay as above. Conditions: compound 0.5 µM; ATP 10 µM.
Sequence of ROCK1 (human) (Q13464 whole entry, looked up): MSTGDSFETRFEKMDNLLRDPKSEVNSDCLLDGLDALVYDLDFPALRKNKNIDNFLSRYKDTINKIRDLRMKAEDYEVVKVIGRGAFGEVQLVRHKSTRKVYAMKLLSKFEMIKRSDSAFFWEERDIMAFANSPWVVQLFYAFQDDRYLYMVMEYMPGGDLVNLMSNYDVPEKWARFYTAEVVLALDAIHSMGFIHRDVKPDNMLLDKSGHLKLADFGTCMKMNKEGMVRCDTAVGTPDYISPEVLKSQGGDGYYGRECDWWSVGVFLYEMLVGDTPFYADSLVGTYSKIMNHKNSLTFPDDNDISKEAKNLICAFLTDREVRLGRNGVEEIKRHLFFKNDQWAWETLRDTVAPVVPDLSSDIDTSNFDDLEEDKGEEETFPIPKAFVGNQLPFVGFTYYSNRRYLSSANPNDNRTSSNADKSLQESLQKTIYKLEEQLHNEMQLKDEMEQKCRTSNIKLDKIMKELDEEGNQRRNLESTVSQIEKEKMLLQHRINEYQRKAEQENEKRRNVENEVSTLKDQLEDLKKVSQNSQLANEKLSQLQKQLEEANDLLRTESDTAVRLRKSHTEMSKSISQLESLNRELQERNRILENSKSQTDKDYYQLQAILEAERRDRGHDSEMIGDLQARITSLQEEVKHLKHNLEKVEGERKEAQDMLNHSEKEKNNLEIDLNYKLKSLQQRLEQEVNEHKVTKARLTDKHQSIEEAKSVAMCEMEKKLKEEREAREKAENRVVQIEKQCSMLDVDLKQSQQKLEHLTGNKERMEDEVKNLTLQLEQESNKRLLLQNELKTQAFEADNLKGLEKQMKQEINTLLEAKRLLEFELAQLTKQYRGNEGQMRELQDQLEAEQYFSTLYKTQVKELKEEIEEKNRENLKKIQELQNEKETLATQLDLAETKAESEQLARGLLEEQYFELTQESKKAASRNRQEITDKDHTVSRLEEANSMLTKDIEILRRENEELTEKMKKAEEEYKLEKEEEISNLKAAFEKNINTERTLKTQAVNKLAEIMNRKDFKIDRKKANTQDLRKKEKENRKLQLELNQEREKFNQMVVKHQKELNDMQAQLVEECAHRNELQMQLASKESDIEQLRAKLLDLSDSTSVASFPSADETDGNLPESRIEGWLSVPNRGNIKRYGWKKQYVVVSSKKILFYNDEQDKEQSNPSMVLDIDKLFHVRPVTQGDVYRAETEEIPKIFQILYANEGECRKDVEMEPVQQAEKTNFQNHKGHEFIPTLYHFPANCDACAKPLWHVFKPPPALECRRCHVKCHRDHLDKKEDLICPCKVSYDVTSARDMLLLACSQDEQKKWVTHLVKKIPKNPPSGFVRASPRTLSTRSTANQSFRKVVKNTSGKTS

Going from `O=C(Nc1ccc(Cl)cc1)c1ccccc1NCc1ccncc1` to `COc1cc2nccc(Oc3ccc(NC(=S)NC(=O)c4ccccc4C)cc3)c2cc1OC`, the residual activity falls from 98.4% to 90.5%.

`CC(C)n1cnc2c(Nc3cccc(Cl)c3)nc(NCCO)nc21` and `O=c1cc(-c2cccc3c2Sc2ccccc2S3)oc(N2CCOCC2)c1` are the same in residual activity: 101% for the first, 101% for the second.

What follows are compounds tested against RPS6KA6 KD1 KD2 (human) (UniProt Q9UK32) in the same assay as above. Conditions: compound 0.5 µM; ATP 10 µM.
Sequence of RPS6KA6 KD1 KD2 (human) (Q9UK32 whole entry, looked up): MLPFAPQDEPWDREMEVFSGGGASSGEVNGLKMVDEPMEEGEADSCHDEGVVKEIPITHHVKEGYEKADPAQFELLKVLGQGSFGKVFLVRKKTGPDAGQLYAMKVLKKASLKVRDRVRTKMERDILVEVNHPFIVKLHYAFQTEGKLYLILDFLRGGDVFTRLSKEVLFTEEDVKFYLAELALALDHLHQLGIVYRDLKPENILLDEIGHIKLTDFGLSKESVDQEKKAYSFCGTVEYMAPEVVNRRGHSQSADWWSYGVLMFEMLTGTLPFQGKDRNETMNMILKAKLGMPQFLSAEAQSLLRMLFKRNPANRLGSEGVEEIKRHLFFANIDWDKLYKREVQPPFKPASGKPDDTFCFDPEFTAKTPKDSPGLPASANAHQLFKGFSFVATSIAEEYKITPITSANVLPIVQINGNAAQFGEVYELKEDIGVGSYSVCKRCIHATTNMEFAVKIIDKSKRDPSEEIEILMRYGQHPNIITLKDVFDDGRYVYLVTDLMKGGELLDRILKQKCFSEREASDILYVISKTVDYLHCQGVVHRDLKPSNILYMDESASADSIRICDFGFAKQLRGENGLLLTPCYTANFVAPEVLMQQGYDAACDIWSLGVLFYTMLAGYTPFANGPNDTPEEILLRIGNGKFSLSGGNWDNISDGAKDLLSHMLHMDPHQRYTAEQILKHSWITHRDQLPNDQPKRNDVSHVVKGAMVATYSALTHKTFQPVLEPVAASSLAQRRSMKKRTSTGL

Compared with `O=C(Nc1ccc(Cl)cc1)c1ccccc1NCc1ccncc1`, `COc1cc2nccc(Oc3ccc(NC(=S)NC(=O)c4ccccc4C)cc3)c2cc1OC` is lower in residual activity: 104% for the first, 93% for the second.

Compared with `CC(C)n1cnc2c(Nc3cccc(Cl)c3)nc(NCCO)nc21`, `O=c1cc(-c2cccc3c2Sc2ccccc2S3)oc(N2CCOCC2)c1` is higher in residual activity: 74.8% for the first, 98.2% for the second.

Each compound was assayed against SGK3 (human) (UniProt Q96BR1) in the same assay as above. Conditions: compound 0.5 µM; ATP 10 µM.
Sequence of SGK3 (human) (Q96BR1 whole entry, looked up): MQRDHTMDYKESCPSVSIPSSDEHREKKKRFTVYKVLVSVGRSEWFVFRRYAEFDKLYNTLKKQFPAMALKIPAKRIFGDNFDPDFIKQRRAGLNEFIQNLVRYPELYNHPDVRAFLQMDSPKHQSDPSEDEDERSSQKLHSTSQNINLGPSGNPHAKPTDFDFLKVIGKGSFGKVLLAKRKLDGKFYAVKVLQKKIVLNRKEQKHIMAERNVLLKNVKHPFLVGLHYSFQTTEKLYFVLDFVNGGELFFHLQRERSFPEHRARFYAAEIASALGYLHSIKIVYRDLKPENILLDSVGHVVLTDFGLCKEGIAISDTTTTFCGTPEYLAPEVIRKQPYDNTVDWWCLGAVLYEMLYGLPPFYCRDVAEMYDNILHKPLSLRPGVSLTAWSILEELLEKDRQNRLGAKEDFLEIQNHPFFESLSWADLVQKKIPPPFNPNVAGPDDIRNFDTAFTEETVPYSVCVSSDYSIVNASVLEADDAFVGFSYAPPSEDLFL

Going from `O=C(Nc1ccc(Cl)cc1)c1ccccc1NCc1ccncc1` to `COc1cc2nccc(Oc3ccc(NC(=S)NC(=O)c4ccccc4C)cc3)c2cc1OC`, the residual activity rises from 92.5% to 98.3%.

Compared with `CC(C)n1cnc2c(Nc3cccc(Cl)c3)nc(NCCO)nc21`, `O=c1cc(-c2cccc3c2Sc2ccccc2S3)oc(N2CCOCC2)c1` is higher in residual activity: 97.1% for the first, 98.6% for the second.

These compounds were tested against SRMS (human) (UniProt Q9H3Y6) in the same assay as above. Conditions: compound 0.5 µM; ATP 10 µM.

First: O=C(Nc1ccc(Cl)cc1)c1ccccc1NCc1ccncc1
Second: COc1cc2nccc(Oc3ccc(NC(=S)NC(=O)c4ccccc4C)cc3)c2cc1OC
The residual activity of the first is lower: 97.9% for the first, 111% for the second.

Going from `CC(C)n1cnc2c(Nc3cccc(Cl)c3)nc(NCCO)nc21` to `O=c1cc(-c2cccc3c2Sc2ccccc2S3)oc(N2CCOCC2)c1`, the residual activity rises from 85.1% to 93.8%.

The compounds below were run against STK3 (human) (UniProt Q13188) in the same assay as above. Conditions: compound 0.5 µM; ATP 10 µM.

Compared with `O=C(Nc1ccc(Cl)cc1)c1ccccc1NCc1ccncc1`, `COc1cc2nccc(Oc3ccc(NC(=S)NC(=O)c4ccccc4C)cc3)c2cc1OC` is lower in residual activity: 94.2% for the first, 86% for the second.

Compared with `CC(C)n1cnc2c(Nc3cccc(Cl)c3)nc(NCCO)nc21`, `O=c1cc(-c2cccc3c2Sc2ccccc2S3)oc(N2CCOCC2)c1` is higher in residual activity: 94.6% for the first, 101% for the second.

What follows are compounds tested against TEK (human) (UniProt Q02763) in the same assay as above. Conditions: compound 0.5 µM; ATP 10 µM.

Going from `O=C(Nc1ccc(Cl)cc1)c1ccccc1NCc1ccncc1` to `COc1cc2nccc(Oc3ccc(NC(=S)NC(=O)c4ccccc4C)cc3)c2cc1OC`, the residual activity falls from 92.4% to 90.1%.

Compared with `CC(C)n1cnc2c(Nc3cccc(Cl)c3)nc(NCCO)nc21`, `O=c1cc(-c2cccc3c2Sc2ccccc2S3)oc(N2CCOCC2)c1` is higher in residual activity: 97.4% for the first, 100% for the second.

Each compound was assayed against TGFBR2 (human) (UniProt P37173) in the same assay as above. Conditions: compound 0.5 µM; ATP 10 µM.

First: O=C(Nc1ccc(Cl)cc1)c1ccccc1NCc1ccncc1
Second: COc1cc2nccc(Oc3ccc(NC(=S)NC(=O)c4ccccc4C)cc3)c2cc1OC
The residual activity of the first is lower: 90.1% for the first, 96.7% for the second.

Going from `CC(C)n1cnc2c(Nc3cccc(Cl)c3)nc(NCCO)nc21` to `O=c1cc(-c2cccc3c2Sc2ccccc2S3)oc(N2CCOCC2)c1`, the residual activity rises from 70.2% to 93.4%.

Each compound was assayed against TXK (human) (UniProt P42681) in the same assay as above. Conditions: compound 0.5 µM; ATP 10 µM.

Compared with `O=C(Nc1ccc(Cl)cc1)c1ccccc1NCc1ccncc1`, `COc1cc2nccc(Oc3ccc(NC(=S)NC(=O)c4ccccc4C)cc3)c2cc1OC` is lower in residual activity: 97.7% for the first, 66.9% for the second.

First: CC(C)n1cnc2c(Nc3cccc(Cl)c3)nc(NCCO)nc21
Second: O=c1cc(-c2cccc3c2Sc2ccccc2S3)oc(N2CCOCC2)c1
The residual activity of the first is lower: 78.1% for the first, 106% for the second.

What follows are compounds tested against WNK3 (human) (UniProt Q9BYP7) in the same assay as above. Conditions: compound 0.5 µM; ATP 10 µM.

Going from `O=C(Nc1ccc(Cl)cc1)c1ccccc1NCc1ccncc1` to `COc1cc2nccc(Oc3ccc(NC(=S)NC(=O)c4ccccc4C)cc3)c2cc1OC`, the residual activity rises from 92.9% to 101%.

First: CC(C)n1cnc2c(Nc3cccc(Cl)c3)nc(NCCO)nc21
Second: O=c1cc(-c2cccc3c2Sc2ccccc2S3)oc(N2CCOCC2)c1
The residual activity of the first is lower: 77.7% for the first, 109% for the second.
